# Data reported in PMC3076737 (Journal of medicinal chemistry, 2010).
# Key:
# CB1 receptor [1] = target: T1, CB1 receptor (Homo sapiens, UniProt P21554); assay type: binding; details: data not shown
# CB1 receptor [2] = target: T1, CB1 receptor; assay type: cell-based; details: data not shown
# CB1 receptor [3] = target: T1, CB1 receptor; assay: GTP-γ-S assay of compounds 3 and 4, preparation not stated, data not shown; assay type: biochemical
# CB1 receptor [4] = target: T1, CB1 receptor; assay: Competitive displacement binding vs [3H]CP55,940 in hCB1 membranes; details: both radioligands
# human CB2 receptor = human CB2 receptor (Homo sapiens, UniProt P34972); assay: Competitive displacement binding vs [3H]CP55,940 in hCB2 membranes; details: read-out: Displacement vs. 3H-CP55,940: Ki (nM) in hCB2; Table 2
# Sequence of human CB2 receptor (P34972 whole entry): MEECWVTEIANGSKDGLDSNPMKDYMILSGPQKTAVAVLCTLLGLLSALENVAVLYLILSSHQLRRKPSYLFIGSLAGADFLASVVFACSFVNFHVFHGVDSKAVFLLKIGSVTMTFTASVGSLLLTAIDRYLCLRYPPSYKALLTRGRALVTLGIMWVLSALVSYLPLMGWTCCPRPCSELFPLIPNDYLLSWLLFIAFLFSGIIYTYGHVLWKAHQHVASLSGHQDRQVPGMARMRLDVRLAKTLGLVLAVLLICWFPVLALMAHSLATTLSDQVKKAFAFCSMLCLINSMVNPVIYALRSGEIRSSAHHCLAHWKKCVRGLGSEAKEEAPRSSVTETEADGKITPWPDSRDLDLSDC
# T1 sequence (P21554 whole entry): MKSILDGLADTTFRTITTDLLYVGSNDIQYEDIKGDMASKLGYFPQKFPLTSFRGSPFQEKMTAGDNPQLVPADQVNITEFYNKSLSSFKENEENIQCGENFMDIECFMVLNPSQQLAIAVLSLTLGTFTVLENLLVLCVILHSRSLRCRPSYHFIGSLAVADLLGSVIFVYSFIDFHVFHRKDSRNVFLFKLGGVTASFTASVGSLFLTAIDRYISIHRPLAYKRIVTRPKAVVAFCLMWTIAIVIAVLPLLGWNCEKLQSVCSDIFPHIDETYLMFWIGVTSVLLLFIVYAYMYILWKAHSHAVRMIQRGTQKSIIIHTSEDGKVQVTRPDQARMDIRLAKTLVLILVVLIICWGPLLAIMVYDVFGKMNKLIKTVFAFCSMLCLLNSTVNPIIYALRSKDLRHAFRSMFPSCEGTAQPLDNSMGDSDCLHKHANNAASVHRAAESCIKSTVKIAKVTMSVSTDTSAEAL
SMILES,Affinity in radiolabeled binding (CB1 receptor [1]),Activity in calcium assay (CB1 receptor [2]),Activity in GTP-γ-S assay (CB1 receptor [3]),Ki (human CB2 receptor) [nM],other results
"Cc1c(C(=O)NCCOCCOCCOCCNC(=O)c2nn(-c3ccc(Cl)cc3Cl)c(-c3ccc(Cl)cc3)c2C)nn(-c2ccc(Cl)cc2Cl)c1-c1ccc(Cl)cc1 [Compound 3, 5-(4-chlorophenyl)-N-{13-[5-(4-chlorophenyl)-1-(2,4-dichlorophenyl)-4-methyl-1H-pyrazol-3-yl]-13-oxo-3,6,9-trioxa-12-azatridec-1-yl}-1-(2,4-dichlorophenyl)-4-methyl-1H-pyrazole-3-carboxamide]",low affinity,inactive,inactive,–,–
"Cc1c(C(=O)NCCCCCCCNCCCCCCCNC(=O)c2nn(-c3ccc(Cl)cc3Cl)c(-c3ccc(Cl)cc3)c2C)nn(-c2ccc(Cl)cc2Cl)c1-c1ccc(Cl)cc1 [Compound 5d, N,N′-(iminodiheptane-7,1-diyl)bis[5-(4-chlorophenyl)-1-(2,4-dichlorophenyl)-4-methyl-1H-pyrazole-3-carboxamide]]",–,–,–,–,Affinity higher than the corresponding monovalent control (7d) (CB1 receptor [4]): ~4 fold
"Cc1c(C(=O)NCCCCCCCCCN(C)CCCCCCCCCNC(=O)c2nn(-c3ccc(Cl)cc3Cl)c(-c3ccc(Cl)cc3)c2C)nn(-c2ccc(Cl)cc2Cl)c1-c1ccc(Cl)cc1 [Compound 6c, N,N′-[(methylimino)dinonane-9,1-diyl]bis[5-(4-chlorophenyl)-1-(2,4-dichlorophenyl)-4-methyl-1H-pyrazole-3-carboxamide]]",–,–,–,> 2500,–
"Cc1c(C(=O)NCCCCCCCCCCCN(C)CCCCCCCCCCCNC(=O)c2nn(-c3ccc(Cl)cc3Cl)c(-c3ccc(Cl)cc3)c2C)nn(-c2ccc(Cl)cc2Cl)c1-c1ccc(Cl)cc1 [Compound 6d, N,N′-[(methylimino)diundecane-11,1-diyl]bis[5-(4-chlorophenyl)-1-(2,4-dichlorophenyl)-4-methyl-1H-pyrazole-3-carboxamide]]",–,–,–,> 2500,–

# Now from value to compound, other results behind:
Affinity in radiolabeled binding (CB1 receptor [1]),Activity in calcium assay (CB1 receptor [2]),Activity in GTP-γ-S assay (CB1 receptor [3]),Ki (human CB2 receptor) [nM],SMILES,other results
low affinity,inactive,inactive,–,"Cc1c(C(=O)NCC(=O)NCC(=O)NCCN)nn(-c2ccc(Cl)cc2Cl)c1-c1ccc(Cl)cc1 [Compound 4, N-{[5-(4-chlorophenyl)-1-(2,4-dichlorophenyl)-4-methyl-1H-pyrazol-3-yl]carbonyl}glycyl-N-(2-aminoethyl)glycinamide]",–
–,–,–,> 2500,"Cc1c(C(=O)NCCCCCN(C)CCCCCN)nn(-c2ccc(Cl)cc2Cl)c1-c1ccc(Cl)cc1 [Compound 8a, N-{5-[(5-aminopentyl)(methyl)amino]pentyl}-5-(4-chlorophenyl)-1-(2,4-dichlorophenyl)-4-methyl-1H-pyrazole-3-carboxamide]",–
